Experimental data published in publication PMC10482825 (Scientific Reports, 2023).
≈ marks a conversion by molar mass, not a printed value. Where a SMILES comes first, the peptide text is derived from it.

How the values were obtained:
MRSA = assay type: cell-based, Methicillin-resistant Staphylococcus aureus (ATCC, BAA-41); details: 20 µl of wells without growth on agar, 18 h, 37 °C
[1] = assay type: cell-based; details: 24 h, serum-free medium, MTT, 37 °C, 5% CO2; mean ± SD; read-out: IC50 (µM) A459
Experimental: (§1) The used mammalian cell lines in our study were colorectal adenocarcinoma (Caco2, ATCC-HTB-37), colorectal carcinoma (HCT 116, ATCC-CCL-247), lung carcinoma (A549, ATCC- CCL-185), cervical cancer cells (HeLa, ATCC-CCL-2), neuroblastoma (SH-SY5Y, ATCC- CRL-2266), rhabdomyosarcoma (RD, ATCC- CCL-136) and human embryonic kidney cells (HEK 293, ATCC- CRL-1573). All the cells were maintained into Dulbecco’s Modified Eagle’s Medium (DMEM) supplemented with 10% heat-inactivated fetal bovine serum, 2 mM L-Glutamine, 100 U/ml penicillin–streptomycin (Pen/Strep) at 37 °C in 5% CO2 humidified incubator.
(§2) First, the cytotoxic effect of 24 h serum deprivation on all the selected cell lines was evaluated by MTT assay, following standard protocols. Briefly, cells were seeded and maintained at 37 °C and 5% CO2 in 24-well plates until they reached 75–80% confluency (zero time). Following washing twice with 1X PBS, cells were incubated in a serum-free medium for 24 h, under the same incubation conditions. The cell viability percentages were calculated and compared to zero time as 100% viability to nullify any possible effects of serum deprivation. Thence, the cell viability percentage of each cell line in response to 24 h treatment with different concentrations of each cryptide in serum-free medium was calculated. […] All the measured cell viability percentages were normalised against the corresponding negative controls.

RD = assay type: cell-based; details: 24 h, serum-free medium, MTT, 37 °C, 5% CO2; mean ± SD
Experimental: as §1, §2

P. aeruginosa = assay type: cell-based, Pseudomonas aeruginosa (ATCC, 10145); details: micro-broth dilution, 3 h peptide treatment then MHB 18 h, 37 °C, OD 600 nm
Source text: (§3) The microbial strains used in this study were Bacillus subtilis (ATCC, 11774), Candida albicans (TIMM, 1768), Enterococcus faecalis (ATCC, 33186), Escherichia coli (ATCC, 11775), Klebsiella pneumoniae (ATCC, 13883), Methicillin-resistant Staphylococcus aureus (ATCC, BAA-41), Pseudomonas aeruginosa (ATCC, 10145), Salmonella enterica (ATCC, 14028), Serratia marcescens (ATCC, 13880), Staphylococcus aureus (ATCC, 25923) and Vibrio parahaemolyticus (ATCC, 17802). All microbial strains were cultivated overnight at 37 °C and 200 rpm, then subcultured and incubated for 3 h under the same incubation conditions to obtain the mid-logarithmic growth phase. The cultivated cells were washed twice with 10 mM Tris–HCl containing 5 mM D-glucose at pH 7.4 and suspended in the same buffer to be used in different assays, as previously described.
(§4) As a conclusive quantitative assessment, broth microtiter assay was used to determine the MIC values of each cryptide against B. subtilis, MRSA, S. enterica, P. aeruginosa, V. parahaemolyticus and C. albicans by following the guidelines of the Clinical and Laboratory Standards Institute (CLSI)[67], with slight modifications. Eighty microliters of 5 × 10^4 CFU/ml of each pathogen were dispensed into a 96-well polypropylene microtiter plate. The wells were then treated with 20 µl of serially diluted cryptides for 3 h at 37 °C. Gentamicin was used for positive controls at 0.2 mg/ml while an equivalent volume of acidified water was used for negative controls. The plates were then topped up with a final concentration of 1 × Mueller Hinton Broth (MHB) and incubated for 18 h under the same incubation conditions. MIC was detected as the lowest concentration of each cryptide that prevents the optically detectable microbial growth at OD = 600 nm.

human RBCs = assay: Hemolytic assay; assay type: cell-based; details: 2% RBCs in PBS, 2 h, 37 °C, supernatant at 450 nm, 0.1% TritonX-100 = maximum; highest tested concentration 100 µM
Experimental: All methods were carried out in accordance with the Declaration of Helsinki, and the Research Ethics Committee approved all experimental protocols at Sunway University (approval no. PGSUREC2020/005). A human blood sample was collected from a healthy person for this assay upon obtaining informed consent. The fresh blood sample was centrifuged at 3700 g for 5 min at RT. The supernatant (serum) was removed and red blood cells (RBCs) were washed three times with 1X PBS and diluted to a final concentration of 2% (PBS—137 mM NaCl, 2.7 mM KCl, 10 mM Na2HPO4, 1.76 mM KH2PO4). Cells were stored at 4 °C, and used within 5 h.
The hemolytic activities of the identified cryptides were evaluated as previously described. The prepared RBCs were treated with different peptide concentrations for 2 h at 37 °C. The treated RBCs were centrifuged, under the same centrifugation conditions, and the supernatants were transferred to a 96-well plate and measured at 450 nm.

B. subtilis = assay type: cell-based, Bacillus subtilis (ATCC, 11774); details: micro-broth dilution, 3 h peptide treatment then MHB 18 h, 37 °C, OD 600 nm
Source text: as §3, §4

S. aureus = assay: Radial diffusion assay; assay type: cell-based, Staphylococcus aureus (ATCC, 25923); details: 5 µl of 500 µM per 3 mm well, 37 °C, mean ± SD
Source text: as §3
The antimicrobial activity spectra of the selected cryptides were screened against all the mentioned microbial pathogens, except V. parahaemolyticus, by radial diffusion assay as previously described, with slight modifications. […] The plates were then incubated for 18 h, and the antimicrobial activities were measured in the absolute unit (AU), as previously described. […]
plate. The plates were then incubated for 12 h at 37 °C and antimicrobial activities were measured in the term of absolute unit (A.U). […]

Row | Compound | MBC (µM) MRSA (MRSA) | IC50 [1] | IC50 (RD) | MIC (µM) P. aeruginosa (P. aeruginosa) | Hemolysis of human RBCs at 100 µM (human RBCs) | MIC (µM) B. subtilis (B. subtilis) | Antimicrobial activity (inhibition zone) S. aureus (S. aureus)
1 | CC(C)C[C@H](NC(=O)[C@H](CCCNC(=N)N)NC(=O)[C@H](Cc1c[nH]c2ccccc12)NC(=O)[C@H](CCCNC(=N)N)NC(=O)[C@H](CC(C)C)NC(=O)[C@@H](N)Cc1ccccc1)C(=O)N[C@@H](CCCCN)C(=O)N[C@@H](Cc1ccccc1)C(=O)N[C@@H](CCCCN)C(=O)N[C@@H](CO)C(=O)N[C@@H](CCCCN)C(=O)N[C@H](C(=O)N[C@@H](Cc1c[nH]c2ccccc12)C(=O)N[C@@H](CS)C(=O)N1CCC[C@H]1C(=O)O)C(C)C [AD7] (H-FLRWRLKFKSKVWCP-OH) | 3.12 µM (≈ 6.22 µg/mL) | 8.5 ± 0.6 µM | 97.8 ± 0.2 µM | 6.25 µM (≈ 12.5 µg/mL) | 26.5% | 0.39 µM (≈ 0.778 µg/mL) | –
2 | RHCLRSKRPPNVCPH [AD4, cationic cryptide from P. vannamei precursor DN34505 (Pl-crustin 2), chemically synthesised] | 12.5 µM | 8.8 ± 1.1 µM | 15 ± 0.8 µM | > 50 µM | – | 1.56 µM | 24.4 ± 0.9 A.U.
3 | CSCC[C@H](NC(=O)[C@H](CCCCN)NC(=O)CNC(=O)[C@H](CCCCN)NC(=O)[C@H](Cc1ccc(O)cc1)NC(=O)[C@H](CC(N)=O)NC(=O)[C@H](CC(C)C)NC(=O)[C@H](CCC(N)=O)NC(=O)[C@H](CC(C)C)NC(=O)[C@@H](N)CCCNC(=N)N)C(=O)N[C@@H](Cc1c[nH]c2ccccc12)C(=O)N[C@@H](CS)C(=O)N1CCC[C@H]1C(=O)NCC(=O)N[C@@H](Cc1c[nH]c2ccccc12)C(=O)O [AD11] (H-RLQLNYKGKMWCPGW-OH) | 12.5 µM (≈ 23.5 µg/mL) | 11.1 ± 0.7 µM | 19.2 ± 0.9 µM | 25 µM (≈ 47 µg/mL) | 20.7% | 0.78 µM (≈ 1.47 µg/mL) | –
